Data on 11 compounds can be found in US20080274095A1, “Biocides” (priority 2004, published 2008).

Ends that are not written are not given here.

One data set deals with Caco-2 Host Cells. Description: Host cell toxicity assay by LDH release. Type of data set: cell-based, human. The method, then: Host cell toxicity assay was performed by measuring the release of lactate dehydrogenase (LDH) in the medium using a CYTOTOX 96 Non-Radioactive Cytotoxicity Assay kit (Promega, Madison, Wis.). Toxicity was therefore classified as non toxic 0-5% LDH release and mild toxicity 5-10% LDH release (ref).
A general note: LDH in the medium is a marker of cell lysis.

The subject of another data set is C. parvum sporozoites. Description: Effect of PLA2 on C. parvum sporozoite infectivity for Caco-2 monolayers. Type of data set: cell-based, Cryptosporidium parvum. On the procedure:
This experiment describes the effects of PLA2 on sporozoite infectivity. Briefly, sporozoites were incubated in an isotonic saline solution (37° C., 30 min) with a range of concentrations of PLA2 isolated from honey bee venom (Sigma-Aldrich Corp., St. Louis, Mo., 1.5 U/μg protein). Control sporozoites were identically incubated in buffer containing concentration-matched BSA but no PLA2. Sporozoites were then washed in medium and inoculated onto replicate Caco-2 human intestinal epithelial cell monolayers. 24 h later, infection was quantified in test and control monolayers by immunofluorescence assay as described herein and the mean percent reduction of infection calculated. […] Percent viability of Caco-2 cells following exposure to PLA2-treated sporozoites (86%) was similar to that of uninoculated control cells (91%) at 24 hrs, as determined by trypan blue dye exclusion. […]
For this assay, isolated sporozoites are incubated (15 min, 37° C.) with an individual biocide in isotonic buffer over a range of concentrations that would theoretically be achievable at the sporozoite surface by targeted delivery as a MAb-biocide fusion protein. […] In parallel, viability of control sporozoites after incubation with the selected biocide concentrations is determined by fluorescein diacetate assay. […] Samples are then processed and evaluated as described herein. […]

The next data set concerns Caco-2 cells. Description: Caco-2 cell viability by trypan blue dye exclusion. Type of data set: cell-based, human. To be noted: following exposure to PLA2-treated sporozoites, 24 hrs. On the procedure: This experiment describes the effects of PLA2 on sporozoite infectivity. Briefly, sporozoites were incubated in an isotonic saline solution (37° C., 30 min) with a range of concentrations of PLA2 isolated from honey bee venom (Sigma-Aldrich Corp., St. Louis, Mo., 1.5 U/μg protein). Control sporozoites were identically incubated in buffer containing concentration-matched BSA but no PLA2. Sporozoites were then washed in medium and inoculated onto replicate Caco-2 human intestinal epithelial cell monolayers. 24 h later, infection was quantified in test and control monolayers by immunofluorescence assay as described herein and the mean percent reduction of infection calculated. […] Percent viability of Caco-2 cells following exposure to PLA2-treated sporozoites (86%) was similar to that of uninoculated control cells (91%) at 24 hrs, as determined by trypan blue dye exclusion. […] Through fusion of PLA2 to a monoclonal antibody with a high affinity for sporozoites, such as 1E10 or 4H9, lethal concentrations of biocide are deliverable to the sporozoite surface with relatively low amounts of biocide being used.

For data set [1] the following is noted: read-out: affinity constant (Km) for substrate; cited from earlier work.
Data set [2] concerns panel of organisms in stationary growth phase. To be noted: cited from earlier work.

As for bee-venom phospholipase A2 [PLA2], the “% LDH release” value in the data set on Caco-2 Host Cells (100 μg/ml) turned out to be 0.7 ± 0.7%. Moreover, in the data set on C. parvum sporozoites (preliminary data), the “concentration effective in neutralization” value is listed as < 0.02 units/ml. In addition, in the data set with C. parvum sporozoites (sporozoites incubated 37° C., 30 min with bee venom PLA2, Caco-2 monolayers, 24 h, P<0.0005), the “concentration achieving highly significant reduction of sporozoite infectivity” value is ≤ 0.014 U/ml. Besides, the “Percent viability of Caco-2 cells” value in the data set on Caco-2 cells is 86%.
As for lysozyme [LYZ], the “% LDH release” value in the data set with Caco-2 Host Cells (100 μg/ml) was −1.9 ± 1.3%. Further, the Km (as a rule, the concentration of substrate that gives half-maximal velocity) in data set [1] is ~1000 µM.
For “HNP-1: human neutrophil defensin, SEQ ID NO 38”, the “antimicrobial properties relative to other defensins” value in data set [2] is given as “most potent antimicrobial properties”.
For “NP-1: rabbit neutrophil defensin, SEQ ID NO 42 (VVCACRRALCLPRERRAGFCRIRGRIHPLCCRR)”, the “antimicrobial properties relative to other defensins” value in data set [2] is on record as “most potent antimicrobial properties”.
In the case of lactoferricin B [LFB], the “% LDH release” value in the data set on Caco-2 Host Cells (10 μg/ml) turned out to be 3.7 ± 2.3%; in the data set on Caco-2 Host Cells (100 μg/ml), 2.6 ± 2.0%.
On to indolicidin, for which the “% LDH release” value was 0.9 ± 0.7% in the data set on Caco-2 Host Cells (10 μg/ml) and 8.3 ± 3.5 % in the data set with Caco-2 Host Cells (100 μg/ml).
The like results for b-defensin 2 [βD2] were, in that order, −0.9 ± 0.5% and 5.3 ± 1.5 %.
Consider phospholipase A2, for which the Michaelis-Menten constant (Km) in data set [1] was ~100 µM.
Consider `CC[C@H](C)[C@H](NC(=O)[C@H](CCCCN)NC(=O)[C@H](CCC(=O)O)NC(=O)[C@H](CCCCN)NC(=O)[C@H](CO)NC(=O)[C@H](CCCCN)NC(=O)[C@H](CCCNC(=N)N)NC(=O)[C@H](Cc1ccccc1)NC(=O)[C@H](Cc1ccccc1)NC(=O)[C@H](CC(=O)O)NC(=O)CNC(=O)[C@H](CC(C)C)NC(=O)[C@@H](N)CC(C)C)C(=O)NCC(=O)N[C@@H](CCCCN)C(=O)N[C@@H](CCC(=O)O)C(=O)N[C@@H](Cc1ccccc1)C(=O)N[C@@H](CCCCN)C(=O)N[C@@H](CCCNC(=N)N)C(=O)N[C@H](C(=O)N[C@H](C(=O)N[C@@H](CCC(N)=O)C(=O)N[C@@H](CCCNC(=N)N)C(=O)N[C@H](C(=O)N[C@@H](CCCCN)C(=O)N[C@@H](CC(=O)O)C(=O)N[C@@H](Cc1ccccc1)C(=O)N[C@@H](CC(C)C)C(=O)N[C@@H](CCCNC(=N)N)C(=O)N[C@@H](CC(N)=O)C(=O)N[C@@H](CC(C)C)C(=O)N[C@H](C(=O)N1CCC[C@H]1C(=O)N[C@@H](CCCNC(=N)N)C(=O)N[C@H](C(=O)N[C@@H](CCC(=O)O)C(=O)N[C@@H](CO)C(=O)O)[C@@H](C)O)C(C)C)[C@@H](C)CC)C(C)C)[C@@H](C)CC` [CAT, cathelicidin], for which the “% LDH release” value is listed as 1.6 ± 0.3 % in the data set on Caco-2 Host Cells (10 μg/ml) and 5.6 ± 0.9 % with Caco-2 Host Cells (100 μg/ml).
On to “phospho-inositol specific phospholipase C [PI-PLC]”, for which the “% LDH release” value in the data set with Caco-2 Host Cells (100 μg/ml) is −1.4 ± 0.9%.
“b-defensin 1 (DHYNCVSSGGQCLYSACPIFTKIQGTCYRGKAKCCK; ends and bridges not checked; cysteine pairing not given here; UniProt P60022 33-68, looked up) [βD1, Peptides international]”: the “% LDH release” value in the data set on Caco-2 Host Cells (10 μg/ml) was determined as 0.8 ± 1.0%; in the data set with Caco-2 Host Cells (100 μg/ml) it was 2.3 ± 2.1%.
